From US20130184316A1, “METHODS FOR DIAGNOSING AND TREATING CONCUSSIVE DISORDERS” (priority 2010, published 2013)

How the values were obtained:
subject with PCS [1] = test: Balance and mobility assessed by Hi-Mat test; format: in vivo, human
Description: (§1) A single subject, prospective, double blind, placebo controlled trial of 4AP was then conducted in this individual. IRB approvals were obtained from all participating institutions and Subject gave written informed consent for all parts of the study. After a 4-week medication washout period, the Subject was randomly assigned a week's course of placebo, followed by a weeklong medication washout period, followed by another week on 4-AP (10 mg twice daily). Based on the medication half-life, a one week washout period was presumed to be sufficient. Subject and assessors were blinded to treatment allocation.
(§2) Measurements conducted at identical times at baseline and on each of the subsequent 3 weeks of the study included: • Balance and mobility assessed by Hi-Mat test (Arch. Phys. Med. Rehabil. 2006, 87(3), 437-442; hereby incorporated by reference in its entirety). • Subjective symptom assessment using the Rivermead Post-Concussion Questionnaire (Clin. Rehabil. 2005, 19(8), 878-887; hereby incorporated by reference in its entirety). • Neuropsychological assessment, consisting of the digit span and cancellation tests from the Wechsler Adult Intelligence Scale, 4th edition (Coalson, D. L., Engi-Raiford, S. Wechsler Adult Intelligence Scale, 4th Ed., in Technical and Interpretive Manual, 4th Ed., San Antonio: Pearson (2008); hereby incorporated by reference in its entirety), the California Verbal Learning Test II (CVLT) (Delis, D. C., Kramer, J. H., Kaplan, E., Ober, B. A. in CVLT-II Manual, San Antonio: The Psychological Corporation (2000); hereby incorporated by reference in its entirety), the Verbal Fluency Test (Connors Continuous Performance Test Computer II Program Version 5 Users Manual, Toronto: Multi-Health Systems, Inc. (2002); hereby incorporated by reference in its entirety), and the Connors Continuous Performance Test (J. Nervous Ment. Dis. 1985, 173(6), 353-357; hereby incorporated by reference in its entirety). • Videonystagmography (VNG) and rotary chair (RC) vestibular testing […]

subject with PCS [2] = test: Subjective symptom assessment, Rivermead Post-Concussion Questionnaire; format: in vivo, human
Description: as §1, §2

subject with PCS [3] = test: Cancellation test, Wechsler Adult Intelligence Scale 4th edition; format: in vivo, human
Description: as §1, §2

subject with PCS [4] = test: Abbreviated Abnormal Involuntary Movement Scale (AIMS), blinded raters of video recordings; format: in vivo, human
From the text: During testing sessions, study personnel noted relapse of paroxysmal grimacing, weakness, sialorrhea, slurred speech, and slowed responses that the Subject had experienced prior to starting 4AP. In an effort to corroborate the presence of abnormal movements, video recordings of identical testing segments were reviewed by raters, physical, occupational, and speech therapists all with experience working with TBI. Raters were blinded to subject history and study variables. Absent any established rating scales for the unusual phenomenon observed, an abbreviated version of the Abnormal Involuntary Movement Scale (AIMS) was used (Prog. Brain Res. 2007, 161, 327-338; hereby incorporated by reference in its entirety).

subject with PCS [5] = test: Single subject double blind placebo controlled trial of 4AP with open-label rounds, overall findings; format: in vivo, human
Description: as §1, §2

subject with PCS [6] = test: Empiric clinical trial of 4AP, reported symptoms and side effects; format: in vivo, human
From the text: The study Subject had persisting stress-induced episodes of weakness and dysequilibrium, along with DBN. A crude phenomenological similarity of these symptoms to EA2 was noted. DNA sequencing of Subject's CACNA1A gene was done; no abnormality was found. Given intractable, persisting, and incapacitating nature of Subject's symptoms and the absence of any therapeutic alternatives, an empiric clinical trial of 4AP was agreed upon. Given subject's history of nephrolithiasis, it was felt that 4AP would be less likely to cause significant adverse reactions than acetazolamide. Subject provided written informed consent.
The Subject was treated by oral administration of 4-AP, starting with a minimal dose of 5 mg. […] Treatment continued for about six months, at which point a wash-out period was initiated.
Side effects (initial blurring of vision, insomnia, and dyspepsia) were mild. Given these clinical results, a prospective, double blind case study was performed.

subject with PCS [7] = test: Neuro-optometric evaluation; format: in vivo, human; conditions: following treatment of 4AP
downbeat nystagmus (DBN) = conditions: literature reports; cited from earlier work
[8] = test system: cerebellar Purkinje cells; conditions: in vitro, literature; cited from earlier work
[9] = session 5 1st Open: open-label 4AP 10 mg twice daily, 5 weeks after formal study
[10] = session 6 2nd Open: open-label 4AP 10 mg twice daily, 9 weeks after formal study
[11] = two open phases, extended medication use

Nc1ccncc1 [4-AP, 4-Amino pyridine] gave a HiMat score (subject with PCS [1]; session 4 Active: blinded, one week on 4-AP 10 mg twice daily, baseline 18, placebo 28, washout 28) of 31, a HiMat score (subject with PCS [1]; session 5 1st Open: open-label 4AP 10 mg twice daily, 5 weeks after conclusion of the formal study) of 32 and a HiMat score (subject with PCS [1]; session 6 2nd Open: open-label 4AP 10 mg twice daily, 9 weeks after conclusion of the formal study) of 50. For the same compound, the Rivermead score (subject with PCS [2]; session 4 Active: blinded, one week on 4-AP 10 mg twice daily, baseline 43, placebo 24, washout 44) was 41, the Rivermead score (subject with PCS [2]; [9]) was 21 and the Rivermead score (subject with PCS [2]; [10]) was 7. It also gave a Cancellation task percentile (subject with PCS [3]; session 4 Active: blinded, one week on 4-AP 10 mg twice daily, baseline 37, placebo 37, washout 37) of 37 percentile, a Cancellation task percentile (subject with PCS [3]; [9]) of 75 percentile and a Cancellation task percentile (subject with PCS [3]; [10]) of 84 percentile. The “AIMS, active medication phase compared to placebo and washout conditions” value (subject with PCS [4]; blinded phase, 4-AP 10 mg twice daily for one week) was “improvement”, the “AIMS Subscale” value (subject with PCS [4]; session 4 Active: blinded, one week on 4-AP 10 mg twice daily, placebo 15.0, washout 9.5) was 4.5 and the “Balance/mobility, symptoms and neuropsychological evaluations” value (subject with PCS [5]; active phase compared with the other blinded phases (baseline, placebo, washout)) was “similar”. The “Balance/mobility and subjective symptoms” value (subject with PCS [5]; [11]) was “improvement”, the “Cancellation and CVLT: cognitive processing speed and auditory memory” value (subject with PCS [5]; [11]) was “improved” and the “Side effects (initial blurring of vision, insomnia, and dyspepsia)” value (subject with PCS [6]; 10 mg twice daily) was “mild”. The “Symptoms reported by the Subject” value (subject with PCS [6]; 10 mg twice daily) was “significant reduction in all symptoms”, the “Symptoms reported by the Subject” value (subject with PCS [6]; oral, doses increased to 30 mg per day, lasted for the duration of treatment (about six months)) was “dramatic improvement in symptoms” and the “Adverse effects observed or reported within 3 hours of administration” value (subject with PCS [6]; oral, minimal starting dose of 5 mg) was “No visible adverse effects”. The “Symptom intensity after termination of 4-AP treatment” value (subject with PCS [6]; wash-out after about six months of treatment) was “rapid relapse of symptom intensity”, the Overall neuro-optometric functioning (subject with PCS [7]) was “unexpectedly improved” and the “Downbeat nystagmus (DBN)” value (downbeat nystagmus (DBN)) was “relieve downbeat nystagmus”. For the same compound, the “Excitability of cerebellar Purkinje cells” value [8] was “increase the excitability”.
